One test has as its system THP-1. Nature of the test: THP-1 IC50 assay. It is filed as cell-based. Conditions: Homo sapiens; THP-1 cells.
Test [1] has as its system IL-1β release upon NLRP3 activation in peripheral blood mononuclear cells (PBMC). Nature of the test: PBMC IC50 Determination Assay. It is filed as cell-based. Conditions: Homo sapiens; inhibition of IL-1β release; LPS-primed PBMC stimulated with ATP or nigericin. An outline of the steps:
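Human PBMC from buffy coats primed 3 h with LPS (1 μg/mL in protocol B), then compound for 30 min, then ATP (5 mM) or nigericin (10 μM; protocol A only) for 1 h. IL-1β released into medium measured by ELISA at 450 nm (protocol A) or HTRF at […] (protocol B).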

One may read the IC50 as the midpoint of a concentration-inhibition curve. The low end stands for greater potency in that assay, the high end for weaker potency in that assay.

Structures are written as SMILES. Counter-ions that a name gives are not always drawn. Some results are limits rather than exact numbers.

With `Cc1cc(C(F)(F)F)cc(O)c1-c1ccc(CN2CC[C@@H](F)C2)nn1` [Compound 34, (R)-2-(6-((3-Fluoropyrrolidin-1-yl)methyl)pyridazin-3-yl)-3-methyl-5-(trifluoromethyl)phenol], the IC50 (with THP-1; in test [1]) was 1000 to 3000 nM each time.

Consider `Cc1cc(C(F)(F)F)cc(O)c1-c1ccc(CN[C@H]2CCOC2)nn1` [Compound 33, (S)-3-methyl-2-(6-(((tetrahydrofuran-3-yl)amino)methyl)pyridazin-3-yl)-5-(trifluoromethyl)phenol], for which the half-inhibitory concentration (IC50) (in the test with THP-1; in test [1]) was less than 500 nM each time.

Take `Cc1cc(C(F)(F)F)cc(O)c1-c1ccc(CNC2CCN(C)C2)nn1` (centres unmarked) [Compound 71, 3-Methyl-2-(6-(((1-methylpyrrolidin-3-yl)amino)methyl)pyridazin-3-yl)-5-(trifluoromethyl)phenol dihydrochloride]: the half-inhibitory concentration (IC50) in the test with THP-1 is 1000 to 3000 nM; in test [1], 500 to 1000 nM.

Take `Cc1cc(C(F)(F)F)cc(O)c1-c1ccc(CNc2c(C)noc2C)nn1` [Compound 51, 2-(6-(((3,5-Dimethylisoxazol-4-yl)amino)methyl)pyridazin-3-yl)-3-methyl-5-(trifluoromethyl)phenol]: the 50% inhibitory concentration (IC50) in the test on THP-1 was 1000 to 3000 nM; in test [1], 500 to 1000 nM.

In the case of `Cc1cc(C(F)(F)F)cc(O)c1-c1ccc(CNC2CCOC(C)C2)nn1` (centres unmarked) [Compound 139], the IC50 was 1000 to 3000 nM in the test with THP-1 and 500 to 1000 nM in test [1].

With `Cc1cc(C(F)(F)F)cc(O)c1-c1ccc(CN[C@H]2CC[C@@](C)(O)CC2)nn1` [Compound 153], the half-maximal inhibitory concentration (IC50) (with THP-1; in test [1]) was 1000 to 3000 nM throughout.

Consider `Cc1cc(C(F)(F)F)cc(O)c1-c1ccc(CN[C@@H]2CCOC2)nn1` [Compound 32, (R)-3-Methyl-2-(6-(((tetrahydrofuran-3-yl)amino)methyl)pyridazin-3-yl)-5-(trifluoromethyl)phenol], for which the half-maximal inhibitory concentration (IC50) was 500 to 1000 nM in the test with THP-1 and less than 500 nM in test [1].

With `Oc1cc(Cl)cc(Cl)c1-c1ccc(CNC2CCOCC2)nn1` [Compound 36, 3,5-Dichloro-2-(6-(((tetrahydro-2H-pyran-4-yl)amino)methyl)pyridazin-3-yl)phenol], the half-inhibitory concentration (IC50) with THP-1 fell in the range of 1000 to 3000 nM; in test [1], 500 to 1000 nM.

For `Cc1cc(C(F)(F)F)cc(O)c1-c1ccc(CNC2CCSCC2)nn1` [Compound 136], the 50% inhibitory concentration (IC50) (in the test on THP-1; in test [1]) was 500 to 1000 nM each time.

Take `CCNCc1ccc(-c2c(C)cc(C(F)(F)F)cc2O)nn1` [Compound 98]: the figures for the IC50 (in the test with THP-1; in test [1]) were 500 to 1000 nM and less than 500 nM, respectively.

As to `Cc1cc(C(F)(F)F)cc(O)c1-c1ccc(CNCCN2CCOCC2)nn1` [Compound 144], the 50% inhibitory concentration (IC50) in the test with THP-1 is 3000 to 10000 nM; in test [1], 1000 to 3000 nM.

With `Cc1cc(NCc2ccc(-c3c(C)cc(C(F)(F)F)cc3O)nn2)no1` [Compound 31, 3-Methyl-2-(6-(((5-methylisoxazol-3-yl)amino)methyl)pyridazin-3-yl)-5-(trifluoromethyl)phenol], the 50% inhibitory concentration (IC50) in the test with THP-1 is 1000 to 3000 nM; in test [1], less than 500 nM.

With `Cc1cc(C(F)(F)F)cc(O)c1-c1ccc(CNC2COC2)nn1` [Compound 21], the half-maximal inhibitory concentration (IC50) (in the test with THP-1; in test [1]) was 500 to 1000 nM in each case.

Consider `CC(=O)N1CC[C@@H](NCc2ccc(-c3c(C)cc(Cl)cc3O)nn2)C1` [Compound 72, (R)-1-(3-(((6-(4-Chloro-2-hydroxy-6-methylphenyl)pyridazin-3-yl)methyl)amino)pyrrolidin-1-yl)ethan-1-one], for which the 50% inhibitory concentration (IC50) with THP-1 lay within 1000 to 3000 nM; in test [1], 500 to 1000 nM.

For `Oc1cc(Cl)ccc1-c1ccc(CNC2CCOCC2)nn1` [Compound 16, 5-Chloro-2-(6-(((tetrahydro-2H-pyran-4-yl)amino)methyl)pyridazin-3-yl)phenol], the half-maximal inhibitory concentration (IC50) is 1000 to 3000 nM in the test on THP-1 and not below 10000 nM in test [1].

Regarding `Cc1cc(C(F)(F)F)cc(O)c1-c1ccc(CNCC(F)(F)F)nn1` [Compound 95], the IC50 (in the test with THP-1; in test [1]) was less than 500 nM throughout.

As for `Cc1cc(C(F)(F)F)cc(O)c1-c1ccc(CN2CCCC2=O)nn1` [Compound 134], the IC50 (with THP-1; in test [1]) was less than 500 nM each time.

Regarding `Cc1cc(Cl)cc(O)c1-c1ccc(COC2COC2)nn1` [Compound 65, 5-Chloro-3-methyl-2-(6-((oxetan-3-yloxy)methyl)pyridazin-3-yl)phenol], the values for the IC50 (in the test on THP-1; in test [1]) were 500 to 1000 nM and less than 500 nM, respectively.

Consider `Cc1cc(C(F)(F)F)cc(O)c1-c1ccc(CNC2CCN(C)CC2)nn1` [Compound 110], for which the IC50 (in the test with THP-1; in test [1]) was 1000 to 3000 nM each time.

`Cc1cc(C(F)(F)F)cc(O)c1-c1ccc(CNCC(C)(C)O)nn1` [Compound 117]: the IC50 fell in the range of 1000 to 3000 nM in the test on THP-1 and 500 to 1000 nM in test [1].

With `Cc1cc(Cl)cc(O)c1-c1ccc(CN2CCCC2)nn1` [Compound 54, 5-Chloro-3-methyl-2-(6-(pyrrolidin-1-ylmethyl)pyridazin-3-yl)phenol], the values for the concentration for half-maximal inhibition (IC50) (with THP-1; in test [1]) were 500 to 1000 nM and less than 500 nM, respectively.

As to `Cc1cc(C(F)(F)F)cc(O)c1-c1ccc(CNCC2CCCOC2)nn1` (centres unmarked) [Compound 108], the concentration for half-maximal inhibition (IC50) (in the test with THP-1; in test [1]) was 3000 to 10000 nM each time.

Consider `Cc1cc(C(F)(F)F)cc(O)c1-c1ccc(CNC2CCOCC2)nn1` [Compound 1, 3-Methyl-2-(6-(((tetrahydro-2H-pyran-4-yl)amino)methyl)pyridazin-3-yl)-5-(trifluoromethyl)phenol], for which the IC50 (in the test on THP-1; in test [1]) was 500 to 1000 nM throughout.

`Cc1cc(C(F)(F)F)cc(O)c1-c1ccc(CNC(=O)C2CCOCC2)nn1` [Compound 7, N-((6-(2-Hydroxy-6-methyl-4-(trifluoromethyl)phenyl)pyridazin-3-yl)methyl)tetrahydro-2H-pyran-4-carboxamide]: the IC50 (with THP-1; in test [1]) was 3000 to 10000 nM throughout.

On to `Cc1cc(C(F)(F)F)cc(O)c1-c1ccc(CN[C@@H]2CC(=O)N(C)C2)nn1` [Compound 50, (R)-4-(((6-(2-Hydroxy-6-methyl-4-(trifluoromethyl)phenyl)pyridazin-3-yl)methyl)amino)-1-methylpyrrolidin-2-one], for which the results for the 50% inhibitory concentration (IC50) (in the test on THP-1; in test [1]) were 3000 to 10000 nM and 1000 to 3000 nM, respectively.

Turning to `Cc1cc(C(F)(F)F)cc(O)c1-c1ccc(CNCC2CC2)nn1` [Compound 97], the IC50 with THP-1 was in the range of 1000 to 3000 nM; in test [1], 500 to 1000 nM.

Take `Cc1cc(C(F)(F)F)cc(O)c1-c1ccc(CN2CC(C)CC2=O)nn1` (centres unmarked) [Compound 46, 1-((6-(2-Hydroxy-6-methyl-4-(trifluoromethyl)phenyl)pyridazin-3-yl)methyl)-4-methylpyrrolidin-2-one]: the IC50 (in the test with THP-1; in test [1]) was 1000 to 3000 nM each time.

For the molecule `Cc1cc(C(F)(F)F)cc(O)c1-c1ccc(CNCc2cccs2)nn1` [Compound 141], the IC50 in the test with THP-1 was 1000 to 3000 nM; in test [1], less than 500 nM.

Turning to `Cc1cc(C(F)(F)F)cc(O)c1-c1ccc(CN(C)C)nn1` [Compound 94], the IC50 (with THP-1; in test [1]) was 1000 to 3000 nM each time.

With `Cc1cc(C(F)(F)F)cc(O)c1-c1ccc(C(C)(C)N2CCCC2=O)nn1` [Compound 81, 1-(2-{6-[2-Hydroxy-6-methyl-4-(trifluoromethyl)phenyl]pyridazin-3-yl}propan-2-yl)pyrrolidin-2-one], the IC50 (with THP-1; in test [1]) was 1000 to 3000 nM throughout.

Take `Cc1cc(C(F)(F)F)cc(O)c1-c1ccc(CNC2CCCOC2)nn1` (centres unmarked) [Compound 102]: the IC50 in the test with THP-1 fell in the range of 1000 to 3000 nM; in test [1], 500 to 1000 nM.

For `Cc1cnc(NCc2ccc(-c3c(C)cc(C(F)(F)F)cc3O)nn2)s1` [Compound 83, 3-Methyl-2-(6-{[(5-methyl-1,3-thiazol-2-yl)amino]methyl}pyridazin-3-yl)-5-(trifluoromethyl)phenol], the IC50 in the test on THP-1 lay within 1000 to 3000 nM; in test [1], 500 to 1000 nM.

Turning to `Cc1cc(Cl)cc(O)c1-c1ccc(CO[C@@H]2CCOC2)nn1` [Compound 63, (R)-5-Chloro-3-methyl-2-(6-(((tetrahydrofuran-3-yl)oxy)methyl)pyridazin-3-yl)phenol], the IC50 was 500 to 1000 nM with THP-1 and less than 500 nM in test [1].

In the case of `Cc1cc(C(F)(F)F)cc(O)c1-c1ccc(C[n+]2cccc(N)c2)nn1` [Compound 145], the half-inhibitory concentration (IC50) in the test with THP-1 lay in the range of 1000 to 3000 nM; in test [1] it was 3000 to 10000 nM.

For `CO[C@H]1CCN(Cc2ccc(-c3c(C)cc(C(F)(F)F)cc3O)nn2)C1` [Compound 40, (S)-2-(6-((3-Methoxypyrrolidin-1-yl)methyl)pyridazin-3-yl)-3-methyl-5-(trifluoromethyl)phenol], the IC50 lay within 1000 to 3000 nM with THP-1 and 500 to 1000 nM in test [1].

For the molecule `Cc1cc(C(F)(F)F)cc(O)c1-c1ccc(COC2CCOCC2)nn1` [Compound 17, 3-methyl-2-(6-(((tetrahydro-2H-pyran-4-yl)oxy)methyl)pyridazin-3-yl)-5-(trifluoromethyl)phenol], the IC50 in the test with THP-1 lay within 1000 to 3000 nM; in test [1], 3000 to 10000 nM.

Regarding `Cc1cc(C(F)(F)F)cc(O)c1-c1ccc(CNc2ccnn2C)nn1` [Compound 27], the IC50 fell in the range of 1000 to 3000 nM in the test with THP-1 and 500 to 1000 nM in test [1].

In the case of `Cc1cc(Cl)cc(O)c1-c1ccc(CN[C@H]2CCC(=O)N(C)C2)nn1` [Compound 87, (5S)-5-({[6-(4-Chloro-2-hydroxy-6-methylphenyl)pyridazin-3-yl]methyl}amino)-1-methylpiperidin-2-one], the IC50 (with THP-1; in test [1]) was less than 500 nM throughout.

In the case of `Cc1cc(C(F)(F)F)cc(O)c1-c1ccc(CNc2cnccn2)nn1` [Compound 146], the IC50 (in the test with THP-1; in test [1]) was 500 to 1000 nM each time.

On to `Cc1cc(C(F)(F)F)cc(O)c1-c1ccc(CN[C@@H]2CCC(=O)N(C)C2)nn1` [Compound 43, (R)-5-(((6-(2-Hydroxy-6-methyl-4-(trifluoromethyl)phenyl)pyridazin-3-yl)methyl)amino)-1-methylpiperidin-2-one], for which the IC50 in the test on THP-1 was 500 to 1000 nM; in test [1], less than 500 nM.

(Values after patent publication US20250115558A1, “PYRIDAZINE DERIVATIVES AND RELATED USES” (NodThera Limited, priority 2023, published 2025).)
